# Key:
# [1] = tested on: L1210; assay: Cytotoxicity against mouse L1210 cells; type: functional, cell-based
# [2] = tested on: KB; assay: Cytotoxicity against human KB cells; type: functional, cell-based
Compound,IC50 [1],IC50 [2]
O=C1C=C2C=C[C@@H]3C[C@@]2(O1)[C@H]1C[C@@H](O)CCN31,3.7 µg/mL,3 µg/mL
O=C1C=C2C=C[C@@H]3C[C@@]2(O1)[C@@H]1CCCCN1O3 [PHYLLANTIDINE],> 5 µg/mL,> 5 µg/mL
CO[C@H]1CCN2[C@@H](C1)[C@]13C[C@H]2[C@@H](OC)CC1=CC(=O)O3 [SECURINEGA AMAMINE B],> 5 µg/mL,> 5 µg/mL
CO[C@H]1CC2=CC(=O)O[C@@]23C[C@@H]1N1CCCC[C@@H]13 [SECURINEGA AMAMINE C],> 5 µg/mL,> 5 µg/mL
CO[C@H]1CCN2O[C@@H]3C=CC4=CC(=O)O[C@]4(C3)[C@@H]2C1 [SECURINEGA AMAMINE D],> 5 µg/mL,> 5 µg/mL
O=C1C=C2C=C[C@@H]3C[C@@]2(O1)[C@H]1CCCCN31 [SECURININE],1.9 µg/mL,2.2 µg/mL

# Reference: ChEMBL document CHEMBL1141438, “Securinega alkaloids from the wood of Securinega suffruticosa var. amamiensis” (J Nat Prod, 2007)
